Values of other authors in patent US10493069B2, “Methods of treating behavioral syndromes using pipradrol” (Ovid Therapeutics Inc., priority 2016, dated 2019).

Tested on: individuals with depression
Conditions: study on 111 individuals with depression; Rickels et al., J Clin Pharmacol 14, 127-133 (1974)

OC(c1ccccc1)(c1ccccc1)C1CCCCN1 (stereo not shown) [pipradrol]
efficacy compared with placebo in depression: not superior to placebo
